Laboratory results: publication PMC7320011, “Rationally designed ruthenium complexes for 1- and 2-photon photodynamic therapy” (Nature Communications, 2020)
“And” between values parts separate entries of the source, which are not always exact repeats. Equal values may be shown once. Read-outs that look alike come from different tables or passages of the source.

Experiments:
[1] = system: mouse colon carcinoma (CT-26) cells
Description: (§2) A total of 4 × 10^3 cells were seeded on 96-well plates and allowed to adhere overnight. The cells were treated with increasing concentrations of the sample diluted in cell media achieving a total volume of 200 μL. The cells were incubated with the sample for 8 h and, after this time, the medium refreshed. To study the phototoxic effect of the sample, the cells were exposed to 480 nm (spectral half-width: 20 nm, 10 min, 5.2 mW cm^−2, 3.1 J cm^−2) or 540 nm (spectral half-width: 30 nm, 40 min, 4.0 mW cm^−2, 9.5 J cm^−2) light using an Atlas Photonics LUMOS BIO irradiator. To study the dark cytotoxicity of the sample, the cells were not irradiated and the medium exchanged. The cells were grown for an additional 40 h at 37 °C. After this time, the medium was replaced with fresh medium containing resazurin with a final concentration of 0.2 mg mL^−1. The cells were incubated for 4 h and the amount of the fluorescent product resorufin determined (λex = 540 nm, λem = 590 nm) with a SpectraMax M2 Microplate Reader (Molecular Devices). The obtained data was analyzed with the GraphPad Prism software.

[2] = system: mouse colon carcinoma (CT-26) cells; assay: (Photo-)cytotoxicity on 2D cell monolayers, CT-26; settings: for PI (480 nm): CT-26, dark vs 480 nm; for PI (540 nm): CT-26, dark vs 540 nm; for IC50: 1-3 as chloride salts
Description: as §2

[3] = Distribution coefficient (shake-flask, octanol/PBS); assay type: physicochemical; settings: ICP-MS
Description: Using the “shake-flask” method, the distribution coefficient between the PBS and octanol phase of the sample was determined. The PBS and octanol phases were previously saturated in each other. The sample was dissolved in the phase, which is dissolving best the compound. This solution was added to an equal volume of the other phase and mixed at 190 rpm overnight with a sample mixer. Following this, the solutions were equilibrated for 4 h. The phases were carefully separated from each other. The amount of the sample in each phase was determined by ICP-MS. The evaluation was repeated three times and the ratio between the organic and aqueous phase determined.

[4] = Photostability (absorption spectra upon irradiation); assay type: physicochemical; settings: 450 nm, 0 to 10 min (13.2 J cm^−2), air-saturated acetonitrile
Description: The sample was prepared in an air-saturated acetonitrile solution. Using a Atlas Photonics LUMOS BIO irradiator, the sample was constantly irradiated at 450 nm in time intervals from 0 to 10 min (13.2 J cm^−2). The absorption spectra from 350 to 700 nm was monitored with a SpectraMax M2 Microplate Reader (Molecular Devices) at each time interval. As positive and negative controls, respectively, [Ru(2,2′-bipyridine)3]Cl2 and Protoporphyrin IX were used.

[5] = Photobleaching by NMR; assay type: physicochemical; settings: 450 nm, 10 min, 13.2 J cm^−2, CD3CN
Description: The sample was dissolved in air saturated 0.7 mL CD3CN and stored in a NMR tube in the dark. A ^1H-NMR spectrum was measured directly after preparation to ensure the identity of the sample. The sample was then irradiated at 450 nm with an Atlas Photonics LUMOS BIO irradiator (10 min, 13.2 J cm^−2). Following this treatment, a ^1H-NMR spectrum was again measured.

[6] = system: HeLa MCTS; assay: (Photo-)cytotoxicity on 3D MCTS (ATP concentration); assay type: cell-based, human; settings: for IC50: 1-3 as chloride salts; for PI (2P irradiation): dark vs 800 nm; for PI (1P irradiation): dark vs 500 nm
Description: The cytotoxicity of the compounds in 3D MCTS was assessed by measurement of the ATP concentration. MCTS were treated with increasing concentrations of the compound (2% DMSO, v%) by replacing 50% of the media with drug supplemented media and incubation for 12 h. After this time, the MCTS were divided in three identical groups. The first group was strictly kept in the dark. The second group was exposed to a 1-Photon irradiation (500 nm, 16.7 min, 10.0 mW cm^−2, and 10 J cm^−2) using a LED light source and the third group was exposed to a 2-Photon irradiation (800 nm, 10 J cm^−2 with a section interval of 5 μm) using a LSM 880 (Carl Zeiss, Germany) laser scanning confocal microscope equipped with a Coherent Chameleon 2-Photon laser. After the irradiation, all groups were incubated additional 48 h. The ATP concertation was measured using a CellTiter-Glo 3D Cell Viability kit (Promega) by measuring the generated chemiluminescence with an infinite M200 PRO (Tecan) plate reader.

[7] = In vivo time-dependent biodistribution (ICP-MS); design: species or system mouse; settings: chloride salt, SW620/AD300 tumor-bearing nude mice
Description: (§1) Six weeks old nu/nu female mice were purchased from Charles River. For the tumor xenograft, 6 × 10^6 SW620/AD300 cells were subcutaneously (s.c.) injected with a 150 μL Matrigel and saline (1:1, v/v) suspension into the mice. After a week, the tumor volumes of the mice reached ~80 mm^3. All experiments were conducted in compliance with the ethical regulations for animal testing and received approval of the experimental animal managing committee of Sun Yat Sen University.
Three nude mice were tail-intravenous (i.v.) injected with 2 mg kg^−1 of the sample. One hour later, the mice were sacrificed and the major organs (including the heart, liver, spleen, lung, kidney, brain, intestine, and blood) were separated, weighted and ground. The grinded organ as well as the blood were digested using a 60% HNO3 solution for 3 days, and following this, diluted to a 2% HNO3 solution in water. The Ru content was determined with an ICP-MS apparatus and the results compared with the Ru references.
Six SW620/AD300 nude tumor-bearing nude mice were separated into three groups, and i.v. injected with 2 mg kg^−1 of the sample. 30 min, 1 h, 2 h later, the mice were euthanized and the distribution of the sample determined using the previous described method.

[8] = system: doxorubicin-selected P-gp-overexpressing human colon cancer tumor (SW620/AD300); assay: In vivo PDT on tumor-bearing nude mice; design: species or system mouse; settings: chloride salt, 2 mg kg^−1 i.v.
Description: as §1
30 SW620/AD300 nude tumor-bearing nude mice were randomly separated into six groups, resulting in five mice for each group. After been anaesthetized, the mice was fixed in a warm three-axes holder. Before irradiation, the tumor site was disinfected with ethanol. The tumor was exposed to 1P or 2P light. Following the irradiation, the operative area was disinfection by iodophor.
Group 1: injected 7 (2 mg kg^−1, 50 μL) intravenously and irradiate under 800 nm laser (50 mW, 1 kHz, pulse width 35 fs, 5 s mm^−1) 1 h after injection; […]
The mice were anesthetized by injection of a 4% chloral hydrate aqueous solution (0.2 mL, 20 g^−1) before the treatment. The tumor volume and body weight were measured and recorded every 2 days. Tumor volume was calculated by the following formula:6 Volume=Length×Width^2/2.

[9] = read-out: IC50 540 nm (40 min, 9.5 J cm-2), CT-26, 540 nm
[10] = read-out: IC50 dark, CT-26, dark
[11] = 2P 800 nm, section interval 5 μm, read-out: IC50 2P irradiation (800 nm, 10 J cm-2)
[12] = 1P 500 nm, read-out: IC50 1P irradiation (500 nm, 10 J cm-2)

Row | SMILES | IC50 [1] [µM] | PI (480 nm) [2] | PI (540 nm) [2] | IC50 [2, 9] [µM] | IC50 [2, 10] [µM] | logD (octanol/PBS) [3] | photostability (change of absorption spectra upon irradiation) [4] | effect of irradiation on the molecular structure (NMR) [5] | IC50 [6, 11] | PI (2P irradiation) [6] | IC50 [6, 12] | PI (1P irradiation) [6] | IC50 ([6]; dark, read-out: IC50 dark) [µM] | time until absorbed from the blood stream ([7]; 2 mg kg^−1 i.v. tail injection) [h] | organ accumulation (Ru content) ([7]; 2 mg kg^−1 i.v.) | tumor growth after one PDT treatment ([8]; 1P (500 nm, 36 J cm^−2) or 2P (800 nm, 50 mW) irradiation 1 h after injection, 80 mm^3 tumor) | tumor growth without irradiation ([8]; dark)
1 | C(=C\c1ccnc(-c2cc(/C=C/c3ccccc3)ccn2)c1)/c1ccccc1.C(=C\c1ccnc(-c2cc(/C=C/c3ccccc3)ccn2)c1)/c1ccccc1.C(=C\c1ccnc(-c2cc(/C=C/c3ccccc3)ccn2)c1)/c1ccccc1.F[P-](F)(F)(F)(F)F.F[P-](F)(F)(F)(F)F.[Ru+2] [compound 1] | 20.3 | > 4.9 | > 3.0 | 33.4 | > 100 | +2.6 ± 0.4 | no significant differences in the absorption spectra |  |  |  |  |  |  |  |  |  | 
2 | CN(C)c1ccc(/C=C/c2ccnc(-c3cc(/C=C/c4ccc(N(C)C)cc4)ccn3)c2)cc1.CN(C)c1ccc(/C=C/c2ccnc(-c3cc(/C=C/c4ccc(N(C)C)cc4)ccn3)c2)cc1.CN(C)c1ccc(/C=C/c2ccnc(-c3cc(/C=C/c4ccc(N(C)C)cc4)ccn3)c2)cc1.F[P-](F)(F)(F)(F)F.F[P-](F)(F)(F)(F)F.[Ru+2] [compound 2, [Ru((E,E′)-4,4′-Bis[p-(N,N-dimethylamino)styryl]-2,2′-bipyridine)3][PF6]2] | 42.6 | > 2.3 | > 1.6 | 62.5 | > 100 | +2.7 ± 0.4 | small changes in the absorption spectra | decomposition of the compound |  |  |  |  |  |  |  |  | 
3 | COc1ccc(/C=C/c2ccnc(-c3cc(/C=C/c4ccc(OC)cc4)ccn3)c2)cc1.COc1ccc(/C=C/c2ccnc(-c3cc(/C=C/c4ccc(OC)cc4)ccn3)c2)cc1.COc1ccc(/C=C/c2ccnc(-c3cc(/C=C/c4ccc(OC)cc4)ccn3)c2)cc1.F[P-](F)(F)(F)(F)F.F[P-](F)(F)(F)(F)F.[Ru+2] [compound 3, [Ru((E,E′)-4,4′-Bis[p-methoxystyryl]-2,2′-bipyridine)3][PF6]2] | 19.3 | > 5.2 | > 4.3 | 23 | > 100 | +2.3 ± 0.3 | no significant differences in the absorption spectra |  | 87.3 ± 6.8 µM | > 1.1 |  |  |  |  |  |  | 
4 | CN(C)c1ccc(/C=C/c2ccnc(-c3cc(/C=C/c4ccc(N(C)C)cc4)ccn3)c2)cc1.CN(C)c1ccc(/C=C/c2ccnc(-c3cc(/C=C/c4ccc(N(C)C)cc4)ccn3)c2)cc1.F[P-](F)(F)(F)(F)F.F[P-](F)(F)(F)(F)F.[Ru+2].c1ccc(-c2ccccn2)nc1 [compound 4, [Ru(2,2′-bipyridine)((E,E′)-4,4′-Bis[p-(N,N-dimethylamino)styryl]-2,2′-bipyridine)2][PF6]2] | 7.3 | > 13.7 | > 10.4 | 9.6 | > 100 | +1.7 ± 0.3 | small changes in the absorption spectra |  | 63 ± 4.2 µM | > 1.6 | 78.3 ± 5.1 µM | > 1.3 |  |  |  |  | 
5 | COc1ccc(/C=C/c2ccnc(-c3cc(/C=C/c4ccc(OC)cc4)ccn3)c2)cc1.COc1ccc(/C=C/c2ccnc(-c3cc(/C=C/c4ccc(OC)cc4)ccn3)c2)cc1.F[P-](F)(F)(F)(F)F.F[P-](F)(F)(F)(F)F.[Ru+2].c1ccc(-c2ccccn2)nc1 [compound 5, [Ru(2,2′-bipyridine)((E,E′)-4,4′-Bis[p-methoxystyryl]-2,2′-bipyridine)2][PF6]2] | 5.1 | > 19.6 | > 16.1 | 6.2 | > 100 | +1.4 ± 0.2 | no significant differences in the absorption spectra |  | 13.4 ± 3.9 µM | > 7.5 | 19.3 ± 2.7 µM | > 5.2 |  |  |  |  | 
6 | CN(C)c1ccc(/C=C/c2ccnc(-c3cc(/C=C/c4ccc(N(C)C)cc4)ccn3)c2)cc1.F[P-](F)(F)(F)(F)F.F[P-](F)(F)(F)(F)F.[Ru+2].c1ccc(-c2ccccn2)nc1.c1ccc(-c2ccccn2)nc1 [compound 6, [Ru(2,2′-bipyridine)2((E,E′)-4,4′-Bis[p-(N,N-dimethylamino)styryl]-2,2′-bipyridine)][PF6]2] | 2.4 | > 41.7 | > 32.3 | 3.1 | > 100 | +0.7 ± 0.2 | small changes in the absorption spectra |  | 26.5 ± 2.9 µM | > 11.3 | 33.8 ± 3.4 µM | > 8.9 | > 300 |  |  |  | 
7 | COc1ccc(/C=C/c2ccnc(-c3cc(/C=C/c4ccc(OC)cc4)ccn3)c2)cc1.F[P-](F)(F)(F)(F)F.F[P-](F)(F)(F)(F)F.[Ru+2].c1ccc(-c2ccccn2)nc1.c1ccc(-c2ccccn2)nc1 [compound 7, [Ru(2,2′-bipyridine)2((E,E′)-4,4′-Bis[p-methoxystyryl]-2,2′-bipyridine)][PF6]2] | 0.7 ± 0.4 | > 143 and > 142.9 | > 111.1 | 0.9 ± 0.3 | > 100 | +0.5 ± 0.2 | no significant differences in the absorption spectra |  | > 1.4 µM and 1.4 µM | > 250 and > 214.3 | > 6.8 µM and 6.8 µM | > 44 and > 44.1 | > 300 | ≤ 1 | high accumulation in the intestine and some accumulation in the tumor | drastically shrank until they were nearly eradicated | kept growing
